Measurements reported in article PMC11595864, “Design, Synthesis, and Evaluation of Novel Thiazole-Containing Algicides Inspired by Bacillamide A” (Marine Drugs, 2024).
Converted amounts (≈) assume the structure as drawn.

Key:
S. costatum [1] = test: Growth-inhibition rate measurement at 50 mg/L, 24 h; type: cell-based, Skeletonema costatum; conditions: for inhibition at 50 µg/mL: Skeletonema costatum, read-out: inhibition rate against S. costatum
Procedure: (§1) P. minimum, A. pacificum, and S. costatum were purchased from Guangyu Biological Technology Co., Ltd. (Shanghai, China). The algae strain was cultured in F/2 medium ((12 h light: 12 h dark cycle), 20 ± 1 °C, 70 μmol m^−2 s^−1). Purchased algae were transferred to sterile conical flasks for culture; after the algae proliferation was stabilized, the expanded culture was next carried out following standard conditions.
(§2) The stock solutions of bacillamide A and different BDs were prepared in dimethyl sulfoxide (DMSO) with the requisition amount. […] The controls received the same volume of DMSO. The inhibitory activities of bacillamide A, different BDs, and positive controls were screened by 96 well microtiter plates at different concentrations. Inhibition ratios (IRs) of cupric sulfate (50 mg/L, positive control), bacillamide A (50 mg/L), and BDs (50 mg/L) were calculated on algae using Equation (1). (1) IR=Cc0-Cex/Cc0×100%
(§3) The CC0 and Cex, respectively, represent the algal densities of the control and experimental groups.

S. costatum [2] = test: Algicidal activity assay, EC50; type: cell-based, Skeletonema costatum; conditions: for EC50: Skeletonema costatum, Mean ± SD, n = 3, read-out: EC50 S. costatum
Procedure: as §1
(§4) Copper sulfate and Diuron were used as the positive controls. EC50 values were calculated according to the equation of the quantity–effect relationship in Equation (2) using the Hill model of Graph Pad Prism software (8.0.2). (2) Y=Bottom+(Top-Bottom)/1+10^(Log EC50-X)×Hill Slope
(§5) The X and Y values represent the concentration (mg/L) and response values of the control and experimental groups, respectively. The Top, Bottom, and Hill Slope represent the maximum response, minimum response, and the curve slope, respectively. The EC50 represents half of the maximum effective concentration.

P. minimum [3] = test: Algicidal activity assay, EC50; type: cell-based, Prorocentrum minimum; conditions: for EC50: Prorocentrum minimum, Mean ± SD, n = 3, read-out: EC50 P. minimum
Procedure: as §1, §4, §5

A. pacificum [4] = test: Growth-inhibition rate measurement at 50 mg/L, 24 h; type: cell-based, Alexandrium pacificum; conditions: Alexandrium pacificum, read-out: inhibition rate against A. pacificum
Procedure: as §1, §2, §3

A. pacificum [5] = test: Algicidal activity assay, EC50; type: cell-based, Alexandrium pacificum; conditions: for EC50: Alexandrium pacificum, Mean ± SD, n = 3
Procedure: as §1, §4, §5

zebrafish = test: Zebrafish acute toxicity assay; type: in vivo; conditions: for Survival percent: zebrafish
Procedure: Zebrafish acute toxicity of bacillamide A and synthesized BDs were evaluated at 0.1 mg/L, 1 mg/L, and 10 mg/L, respectively. Diuron and CuSO4 were used as positive controls. The commercial zebrafish (body length > 3.0 cm) were domesticated in aerated tap water for 24 h, fed once daily for seven consecutive days, and stopped being fed before the experiment.
4. Acute toxicity table S1.
Compound Concentration Survival percent Acute
aAccording to the Guide for Environmental Safety Assessment of Chemical Pesticides
4 groups and treated with different compounds for 96 h.

P. minimum [6] = test: Growth-inhibition rate measurement at 50 mg/L, 24 h; type: cell-based, Prorocentrum minimum; conditions: Prorocentrum minimum, read-out: inhibition rate against P. minimum
Procedure: as §1, §2, §3

A. pacificum [7] = test: Observation of cellular morphology (optical microscope); type: cell-based, Alexandrium pacificum; conditions: 10 mg/L, 4 h
PSII in P. minimum = test: Quantum yield Fv/Fm of PSII; type: cell-based, Prorocentrum minimum; conditions: 10 mg/L, 72 h, versus negative control
Procedure: (§6) P. minimum, S. costatum, and A. pacificum cells were cultured in F/2 medium. All flasks were cultivated under 12 h of light: 12 h of dark and 70 μmol m^−2 s^−1 at 20 ± 1 °C. […] Finally, the algal cells were collected and diluted in 6 mL of phosphate buffer (pH = 7.8). A small amount of quartz sand was added into the algal cells under ice bath. The obtained homogenate was next poured into a centrifuge tube and centrifuged at 5000 r/min for 25 min at 4 °C. The obtained supernatant was placed in the refrigerator at 4 °C for the next step experiment.
(§7) Fv/Fm values were determined by using AquaPen handheld algae fluorescence meter (Nanjing Mingao Instrument Co., Ltd., Nanjing, China). The algae cells were darkened for 30 min and Fv/Fm values were measured.

PSII in S. costatum = test: Quantum yield Fv/Fm of PSII; type: cell-based, Skeletonema costatum; conditions: 10 mg/L, 72 h, versus negative control
Procedure: as §6, §7

S. costatum [8] = test: ROS level (DCFH-DA fluorescent probe assay); type: cell-based, Skeletonema costatum; conditions: 10 mg/L, 72 h
Procedure: as §6
(§8) The reactive oxygen species (ROS) assay kit was purchased from SolarBio Co., Ltd., Beijing, China. The 2′,7′-dichlorodihydrofluorescein diacetate (DCFH-DA) could be oxidized by reactive oxygen or nitrogen species (ROS/RNS) to generate high fluorescent 2′,7′-dichlorofluoroscein (DCF). DCF could be detected by Cyto-FLEX flow cytometry.

P. minimum [9] = test: Observation of cellular morphology (optical microscope, SEM); type: cell-based, Prorocentrum minimum; conditions: 10 mg/L, 4 h
Procedure: (§9) There were morphological changes of algae cells treated by bacillamide A, BDs, and the positive control (CuSO4). […] Cell samples were centrifuged at 12,000 rpm for 10 min, collected, fixed, gradient-dehydrated, and freeze-dried after gold coating following the reported procedure. The SEM analyses were performed by scanning electron microscopy (SEM, JSM-7900F, […], Tokyo, Japan).

P. minimum [10] = test: ROS level (DCFH-DA fluorescent probe assay); type: cell-based, Prorocentrum minimum; conditions: 10 mg/L, 72 h
Procedure: as §6, §8

S. costatum [11] = test: MDA level (thiobarbituric acid assay kit); type: cell-based, Skeletonema costatum; conditions: 10 mg/L, 72 h, versus control (DMSO)
Procedure: as §6
(§10) The malondialdehyde (MDA) assay kit was purchased from Lvyuandade Biochemical Co, Ltd., Beijing, China. The MDA parameter was monitored according to the procedure provided by the manufacturer. A total of 1 mL of algal extract was mixed with thiobarbituric acid solution (2 mL, 0.6%). The solution was sealed and kept in a boiling water bath for 15 min, followed by being cooled and centrifuged at 4500 r/min for 10 min. The absorbance values of collected supernatant were measured and calculated by the Formula (3) at 600 nm, 532 nm, and 450 nm:MDA content (nmol∙mgprot^−1) = 6.45 × (A532 − A600) − 0.56 × A450(3)

P. minimum [12] = test: MDA level (thiobarbituric acid assay kit); type: cell-based, Prorocentrum minimum; conditions: 10 mg/L, 72 h, versus control (DMSO)
Procedure: as §6, §10

S. costatum [13] = test: Observation of cellular morphology (optical microscope, SEM); type: cell-based, Skeletonema costatum; conditions: 10 mg/L, 4 h
Procedure: as §9

Row | SMILES | inhibition at 50 µg/mL (S. costatum [1]) [%] | EC50 (S. costatum [2]) [µg/mL] | EC50 (P. minimum [3]) [µg/mL] | inhibition at 50 µg/mL (A. pacificum [4]) [%] | EC50 (A. pacificum [5]) [µg/mL] | Survival percent (zebrafish; 0.1 mg/L, 0h) | Survival percent (zebrafish; 0.1 mg/L, 24h) | Survival percent (zebrafish; 0.1 mg/L, 48h) | Survival percent (zebrafish; 0.1 mg/L, 72h) | Survival percent (zebrafish; 0.1 mg/L, 96h) | Survival percent (zebrafish; 1 mg/L, 0h) | Survival percent (zebrafish; 1 mg/L, 24h) | Survival percent (zebrafish; 1 mg/L, 48h) | Survival percent (zebrafish; 1 mg/L, 72h) | Survival percent (zebrafish; 1 mg/L, 96h) | Survival percent (zebrafish; 10 mg/L, 0h) | Survival percent (zebrafish; 10 mg/L, 24h) | Survival percent (zebrafish; 10 mg/L, 48h) | melting point [°C] | inhibition at 50 µg/mL (P. minimum [6]) [%] | further results
1 | O=C(NCCc1c[nH]c2ccccc12)c1csc(-c2ccccc2)n1 [Compound 6a] | > 70 | 0.11 ± 0.02 (≈ 0.317 µM) | 1.74 ± 0.4 (≈ 5.01 µM) | 70 to 95 | 3.32 ± 0.79 (≈ 9.56 µM) | 100 | 100 | 100 | 100 | 100 | 100 | 83 | 80 | 80 | 73 | 100 | 0 | 0 | – | – | fold more potent than CuSO4 (S. costatum [2]; from EC50 against S. costatum): 28 fold; fold more potent than Diuron (S. costatum [2]; from EC50 against S. costatum): 39 fold; fold more potent than bacillamide A (S. costatum [2]; from EC50 against S. costatum): 23 fold; Survival percent (zebrafish; 10 mg/L, 72h): 0; Survival percent (zebrafish; 10 mg/L, 96h): 0
2 | O=C(NCCc1c[nH]c2ccccc12)c1csc(-c2cccs2)n1 [Compound 6e] | – | – | – | – | – | – | – | – | – | – | – | – | – | – | – | – | – | – | 189 to 190 | – | –
3 | COc1ccc2[nH]cc(CCNC(=O)c3csc(-c4ccccc4)n3)c2c1 [Compound 7b] | – | 0.37 ± 0.07 (≈ 0.98 µM) | 1.32 ± 0.38 (≈ 3.5 µM) | – | 0.72 ± 0.021 (≈ 1.91 µM) | – | – | – | – | – | – | – | – | – | – | – | – | – | 164 to 165 | 82.3 | –
4 | O=C(NCCc1ccccc1)c1csc(-c2ccccc2)n1 [Compound 7c] | – | 0.24 ± 0.058 (≈ 0.778 µM) | 3.38 ± 0.84 (≈ 11 µM) | 70 to 95 | 0.53 ± 0.32 (≈ 1.72 µM) | – | – | – | – | – | – | – | – | – | – | – | – | – | – | 74.7 | –
5 | CCCCc1nc(C(=O)NCCc2c[nH]c3ccccc23)cs1 [Compound 6j] | > 70 | 0.3 ± 0.02 (≈ 0.916 µM) | 1 ± 0.11 (≈ 3.05 µM) | 70 to 95 | 0.47 ± 0.25 (≈ 1.44 µM) | 100 | 100 | 100 | 100 | 100 | 100 | 100 | 100 | 80 | 80 | 100 | 80 | 0 | – | 71.9 | cell morphology of A. pacificum, micrographs (A. pacificum [7]): broken or damaged or both; decrease of Fv/Fm of PSII in P. minimum (PSII in P. minimum): 3 fold; decrease of quantum yield Fv/Fm of PSII in S. costatum (PSII in S. costatum): 27 fold; inhibition rate against S. costatum (S. costatum [1]): 81.7%; increase of ROS levels in S. costatum (S. costatum [8]): 3 fold; cell morphology of P. minimum, micrographs (P. minimum [9]): broken or damaged or both; increase of ROS levels in P. minimum (P. minimum [10]): 5.4 fold; increase of MDA levels in S. costatum (S. costatum [11]): 2.2 fold; fold more potent than natural bacillamide A, Diuron, and CuSO4 (P. minimum [3]; from EC50 against P. minimum): 3–5 fold; increase of MDA levels in P. minimum (P. minimum [12]): 2.3 fold; cell morphology of S. costatum, micrographs (S. costatum [13]): broken or damaged or both; fold more potent than natural bacillamide A, Diuron, and CuSO4 (A. pacificum [5]; from EC50 against A. pacificum): 3–5 fold; mortality in zebrafish (zebrafish; 10 mg/L, treatment for more than 48 h): 100%; Survival percent (zebrafish; 10 mg/L, 72h): 0; Survival percent (zebrafish; 10 mg/L, 96h): 0
6 | CCOc1ccc(-c2nc(C(=O)NCCc3c[nH]c4ccccc34)cs2)cc1 [Compound 6c] | > 70 | 0.51 ± 0.04 (≈ 1.3 µM) | 1.29 ± 0.08 (≈ 3.3 µM) | – | 2.43 ± 0.42 (≈ 6.21 µM) | – | – | – | – | – | – | – | – | – | – | – | – | – | 184 to 185 | 70.8 | inhibition rate against S. costatum (S. costatum [1]): 72.6%
